Experimental data published in publication PMC12771125, “Compounds Reducing Human Sperm Motility as Potential Nonhormonal Contraceptives Identified Using a High-Throughput Phenotypic Screening Platform” (ACS Omega, 2025).
Converted amounts (≈) assume the structure as drawn. Like-named read-outs stand apart in the source and are kept apart here.

What was measured:
[1] = tested on: human sperm; experiment: Reduction of sperm motility (RSM) high-throughput phenotypic assay; format: cell-based; conditions: for EC50: Homo sapiens, reduction of progressive sperm motility relative to control
Procedure: Using our previously established phenotypic human sperm motility screening platform, we screened a large subset (62,621 compounds) of one of our in-house diversity libraries (National Phenotypic Screening Centre (NPSC) Diversity Set) (Figure A,B). Briefly, human sperm are collected, isolated from semen, distributed into 384-well plates with test compounds, time-lapse images of sperm movement are recorded using a high-content imager, and progressive motility parameters are calculated using custom data analysis software. Sperm motility is complicated, and the mechanisms underpinning its regulation are not fully understood. Progressive motility, which is a measurement of the movement of forward progression of sperm, is most closely linked to sperm quality, and the percentage of progressively motile sperm compared to control is therefore the parameter utilized during the work described in this paper. […]
We used an HTS screening platform to assess the motility of live human spermatozoa. The platform and its development are described in detail in Gruber et al. , and summarized below in brief. The platform was used to screen compound libraries specifically focusing on reduction in motility. Interesting compounds were examined in further detail as possible starting points for a medicinal chemistry program. The experimental design is illustrated in Figure .
Donors were local to the Dundee area, over the age of 18, and had no known fertility problems and normal sperm concentration, motility and semen characteristics according to WHO 2021 criteria. Special category personal data for donors, such as ethnic origin, was not recorded in accordance with ethical approval and UK GDPR. Samples were obtained by masturbation, after sexual abstinence of 2–5 days, and delivered to the research laboratory within one h of production. Samples were allowed to liquefy at 37 °C for 15–30 min prior to preparation by discontinuous density gradient centrifugation (DGC). […] A minimum of 3 prepared donor samples were routinely pooled to reduce donor-to-donor variability for primary screening assays. Pooled samples were incubated for 3 h at 37 °C under noncapacitating conditions.
In brief, screening batches of cells were transferred to a robotic platform (HighRes Biosolutions Inc.) and maintained during the screen at 37 °C at 5% CO2. Assay-ready 384-well plates containing compounds were prepared prior to the screen and filled with approximately 10,000 spermatozoa (20 μL) per well using a liquid handling system (MultiDrop Combi; ThermoFisher). These plates were incubated for 10 min prior to imaging. The HTS system utilized a Yokogawa CV7000 Cell Voyager high-throughput microscope to record time-lapse images from 2 positions in each well. An adaptation of a tracking algorithm, Trackpy v0.4.1 was utilized to track individual spermatozoa within each well and obtain kinematic parameters. Within the compound-test plates, DMSO was used as the vehicle control.
All steps were performed as previously described. , In summary, data from every compound well were normalized to those from in-plate DMSO controls (wells containing the same amount of DMSO as compound wells). Two positions were recorded in every well, and the average of those positions was used for calculating % of control (median value/DMSO median) × 100. Each plate contained 16 DMSO control wells. Median curvilinear velocity (VCL) was used as the primary readout for the NPSC Diversity Set screened at 6 μM, and percentage progressive motility (PM) was used for all other libraries screened. Hits from the primary screening were chosen based on the % change compared to the control. In these experiments, an RSM of ≥20% compared to negative controls (DMSO) was chosen as a cutoff for potential progression.
In a screening program of this scale, a significant number of compounds are likely to have a negative effect on sperm motility, but a number will show general toxicity. […]

[2] = tested on: HepG2 cells; experiment: HepG2 cytotoxicity assay (resazurin, 72 h); format: cell-based, human; conditions: for EC50: Homo sapiens, HepG2, 72 h, read-out: HepG2 pEC50 (converted)
Text: Our overarching aims for investigating our chemical series and deciding which ones had the potential for further progression were to achieve adequate potency in our motility assay, suitable solubility, and minimal cytotoxicity in HepG2 cells. This third point was often the most challenging, as multiple series had cytotoxicity in HepG2 cells. This observation is perhaps not surprising; many potential targets in sperm cells can also be found in somatic cells. Our cytotoxicity assay is run with an incubation time of 72 h, to give time for gross cytotoxic effects to become apparent.
Compound dilution curves were plated directly using a Labcyte Echo 550 acoustic dispenser (125 nL) in 384-well white clear-bottom plates (Greiner). HepG2 cells (ATCCHepG2 HB-8065) were cultured in minimum essential medium (supplemented with glutamax) with 10% FCS and plated (25 μL) using a WellMate dispenser ([…]) and incubated for 72 h. Doxorubicin was used as a positive control drug. Resazurin was then added to each well at a final concentration of 45 μM, and fluorescence was measured using a PHERAstar LS (BMG Labtech) after 4 h of further incubation (excitation of 528 nm and emission of 590 nm). Raw data were normalized to controls and expressed as % growth.
Figure S2: Concentration-response curves from high throughput HepG2 viability assay. Each compound was tested in duplicate and the curves of each replicate are shown. The reported values in the tables are an average of the 2 pEC50 values obtained. […]
determine 0% effect, positive control used to determine 100% effect).
Hit compounds 1a, 6b and 7a were repurchased from commercial suppliers including enamine and […]

[3] = Aqueous solubility; format: physicochemical
[4] = 10 min, 10 min incubation, reported <X (neg. log of top concentration) if largest reduction <70%, read-out: RSM pEC50 10 mins (converted)
[5] = 3 h incubation, reported <X if largest reduction <70%, read-out: RSM pEC50 3 hrs (converted)
[6] = 6 h incubation, reported <X if largest reduction <70%, read-out: RSM pEC50 6 hrs (converted)

Row | Compound | EC50 [1, 4] | EC50 [2] | solubility [3] | EC50 [1, 5] | EC50 [1, 6] | increase in potency in the sperm motility assay ([1]; after 6 h incubation, compared with hit 2a) | increase in cytotoxicity against HepG2 cells ([2]; compared with hit 2a)
1 | N#Cc1ccc(NC(=O)c2cc(Cl)ccc2O)cc1Cl [Compound 1e] | 2.51 µM | 5.01 µM | 2.3 µM (≈ 0.706 µg/mL) |  |  |  | 
2 | O=C(Nc1cccc(Cl)c1)c1cc(Cl)ccc1O [Compound 1f] | 5.01 µM | 6.31 µM | 4.1 µM (≈ 1.16 µg/mL) |  |  |  | 
3 | N#Cc1ccc(NC(=O)c2cc(Cl)ccc2O)cc1 [Compound 1g] | 5.01 µM | 2.51 µM | 11 µM (≈ 3 µg/mL) |  |  |  | 
4 | N#Cc1ccc(NC(=O)c2cc(Cl)ccc2O)cn1 [Compound 1h] | > 20 µM | 20 µM | 100 µM (≈ 27.4 µg/mL) |  |  |  | 
5 | COc1ccc(Cl)cc1C(=O)Nc1ccc(C#N)c(Cl)c1 [Compound 1j] | > 20 µM | > 100 µM | 0.19 µM (≈ 0.061 µg/mL) |  |  |  | 
6 | O=C(Nc1ccc(OCc2ccccc2)cc1)c1ccccc1Cl [Compound 1k] | > 20 µM | > 100 µM | 0.64 µM (≈ 0.216 µg/mL) |  |  |  | 
7 | NCCN(C(=O)c1ccccc1Cl)c1ccc(Cl)cc1 [Compound 1l] | > 31.6 µM | 79.4 µM | 240 µM (≈ 74.2 µg/mL) | > 31.6 µM | > 31.6 µM |  | 
8 | NCCN(C(=O)c1ccc(F)cc1F)c1ccc(Cl)cc1 [Compound 1n] | > 31.6 µM | > 100 µM | 73 µM (≈ 22.7 µg/mL) | > 31.6 µM | > 31.6 µM |  | 
9 | COc1cc(N2CCOCC2)ccc1Nc1ncc(Cl)c(Nc2ccccc2NS(C)(=O)=O)n1 [Compound 2a, N-(2-((5-Chloro-2-((2-methoxy-4-morpholinophenyl)amino)pyrimidin-4-yl)amino)phenyl)methanesulfonamide, reference compound] | 3.98 µM | 3.98 µM | 30 µM (≈ 15.2 µg/mL) | 2.51 µM | 2 µM |  | 
10 | CNC(=O)c1ccccc1Nc1nc(Nc2ccc(N3CCOCC3)cc2OC)ncc1Cl [Compound 2b] | 2.51 µM | 2 µM | 2.2 µM (≈ 1.03 µg/mL) |  |  |  | 
11 | CS(=O)(=O)Nc1cc(F)ccc1Nc1nc(Nc2ccc(C(=O)N3CCOCC3)cc2)ncc1Cl [Compound 2c] | 5.01 µM | 7.94 µM | 2.3 µM (≈ 1.2 µg/mL) | 3.16 µM | 3.98 µM |  | 
12 | CN(c1ccccc1Nc1nc(Nc2ccc(CN3CCOCC3)cc2)ncc1Cl)S(C)(=O)=O [Compound 2d] | > 31.6 µM | 0.398 µM | 64 µM (≈ 32.2 µg/mL) | 0.126 µM | 0.126 µM | 1 log-unit | 1 log
13 | CS(=O)(=O)Nc1cc(F)ccc1Nc1nc(Nc2ccc(CN3CCNCC3)cc2)ncc1Cl [Compound 2e] | 3.98 µM | 15.8 µM | 27 µM (≈ 13.7 µg/mL) | 2 µM | 1.58 µM |  | 
14 | CS(=O)(=O)Nc1ccccc1Nc1nc(NC2CCOCC2)ncc1Cl [Compound 2f] | > 31.6 µM | 5.01 µM | 16 µM (≈ 6.37 µg/mL) | > 31.6 µM | > 31.6 µM |  | 
15 | O=C(Nc1nc(-c2ccccn2)cs1)Nc1ccc(F)cc1F [Compound 3b, 1-(2,4-Difluorophenyl)-3-(4-(pyridin-2-yl)thiazol-2-yl)urea] | > 31.6 µM | 7.94 µM | 1.2 µM (≈ 0.399 µg/mL) | > 31.6 µM | 7.94 µM |  | 
16 | O=C(Nc1nc(-c2ccccn2)cs1)c1ccccc1Cl [Compound 3c] | > 31.6 µM | > 100 µM | 100 µM (≈ 31.6 µg/mL) | > 31.6 µM | > 31.6 µM |  | 
17 | O=C(Nc1nc(-c2cccnc2)cs1)Nc1ccc(F)cc1F [Compound 3d] | > 31.6 µM | > 100 µM | 1.5 µM (≈ 0.499 µg/mL) | > 31.6 µM | > 31.6 µM |  | 
18 | O=C(Nc1nc(-c2ccccc2)cs1)Nc1ccc(F)cc1F [Compound 3e] | > 31.6 µM | 50.1 µM | 0.24 µM (≈ 0.0795 µg/mL) | > 31.6 µM | > 31.6 µM |  | 
19 | O=C(Nc1nc(-c2ccc(F)cc2F)cs1)Nc1ccc(F)cc1F [Compound 3f] | > 31.6 µM | > 100 µM | 0.29 µM (≈ 0.107 µg/mL) | > 31.6 µM | > 31.6 µM |  | 
20 | CC(C)c1csc(NC(=O)Nc2ccc(F)cc2F)n1 [Compound 3g] | > 31.6 µM | > 100 µM | 0.89 µM (≈ 0.265 µg/mL) | > 31.6 µM | > 31.6 µM |  | 
21 | O=C(Nc1nc(-c2ccccn2)cs1)NC1CCOCC1 [Compound 3i] | > 31.6 µM | > 100 µM | 220 µM (≈ 67 µg/mL) | > 31.6 µM | > 31.6 µM |  | 
22 | CC(C)NC(=O)Nc1nc(-c2ccccn2)cs1 [Compound 3j] | > 31.6 µM | > 100 µM | 140 µM (≈ 36.7 µg/mL) | > 31.6 µM | > 31.6 µM |  | 
23 | O=C(Nc1nc(-c2ccccn2)cs1)NC1CCNCC1 [Compound 3k] | > 31.6 µM | > 100 µM | 130 µM (≈ 39.4 µg/mL) | > 31.6 µM | > 31.6 µM |  | 
24 | CC(C)CNC(=O)Nc1nc(-c2ccccn2)cs1 [Compound 3l] | > 31.6 µM | > 100 µM | 9.3 µM (≈ 2.57 µg/mL) | > 31.6 µM | 7.94 µM |  | 
